# Biological target: T1, Aldehyde Oxidase (AO) (Homo sapiens, UniProt Q06278)
# T1 construct: tissue Frontage Laboratories (performed the study); host or cells: human liver cytosol (HLC), 2 mg/ml
# T1 sequence (Q06278 1-1338): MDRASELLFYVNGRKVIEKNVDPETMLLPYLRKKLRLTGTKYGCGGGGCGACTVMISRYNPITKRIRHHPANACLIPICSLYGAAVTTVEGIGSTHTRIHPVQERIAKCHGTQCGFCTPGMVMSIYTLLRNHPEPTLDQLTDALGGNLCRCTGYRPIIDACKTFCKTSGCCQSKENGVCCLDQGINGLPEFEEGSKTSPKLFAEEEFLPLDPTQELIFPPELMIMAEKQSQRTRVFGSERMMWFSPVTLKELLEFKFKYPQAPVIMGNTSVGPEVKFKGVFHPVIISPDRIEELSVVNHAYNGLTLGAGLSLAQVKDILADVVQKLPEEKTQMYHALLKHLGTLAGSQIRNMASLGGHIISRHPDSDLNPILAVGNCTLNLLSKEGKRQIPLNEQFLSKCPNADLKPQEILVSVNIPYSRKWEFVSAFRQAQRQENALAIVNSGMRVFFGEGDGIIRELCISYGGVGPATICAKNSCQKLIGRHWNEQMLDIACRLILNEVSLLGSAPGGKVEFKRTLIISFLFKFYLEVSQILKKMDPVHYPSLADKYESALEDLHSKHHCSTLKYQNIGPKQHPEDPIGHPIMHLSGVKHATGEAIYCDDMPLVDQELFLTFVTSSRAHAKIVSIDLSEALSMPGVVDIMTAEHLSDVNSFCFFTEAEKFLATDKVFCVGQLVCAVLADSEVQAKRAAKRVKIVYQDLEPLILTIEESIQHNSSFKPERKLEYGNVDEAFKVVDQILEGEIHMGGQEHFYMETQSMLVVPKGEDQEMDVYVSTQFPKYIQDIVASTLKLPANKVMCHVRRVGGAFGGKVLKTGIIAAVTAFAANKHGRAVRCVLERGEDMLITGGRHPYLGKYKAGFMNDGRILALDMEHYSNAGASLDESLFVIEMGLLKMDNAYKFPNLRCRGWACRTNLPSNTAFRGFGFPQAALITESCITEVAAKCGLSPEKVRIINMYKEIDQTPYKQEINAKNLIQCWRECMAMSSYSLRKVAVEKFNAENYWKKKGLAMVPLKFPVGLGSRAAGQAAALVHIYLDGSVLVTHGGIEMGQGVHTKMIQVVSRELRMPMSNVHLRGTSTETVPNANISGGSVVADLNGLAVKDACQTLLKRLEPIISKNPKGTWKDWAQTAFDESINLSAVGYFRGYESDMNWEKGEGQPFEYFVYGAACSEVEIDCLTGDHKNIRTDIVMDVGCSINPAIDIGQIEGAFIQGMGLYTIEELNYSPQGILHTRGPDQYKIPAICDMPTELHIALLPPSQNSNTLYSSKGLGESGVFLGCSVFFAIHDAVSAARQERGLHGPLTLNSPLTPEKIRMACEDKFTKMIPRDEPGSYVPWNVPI
# Assay: Aldehyde oxidase (AO) oxidation study, metabolic stability in human liver cytosol
# Type: in vitro ADME
# Conditions: human liver cytosol 2 mg/ml, 1 μM substrate, 37° C.
# Experimental: Experimental Procedure for Aldehyde Oxidase (AO) Oxidation Study (Frontage Laboratories (700 Pennsylvania Dr. Exton, Pa. 19341)
# Determination of the of metabolic stability in human liver cytosol (HLC) and the identification of corresponding metabolites was done by incubating substrates (1 μM final concentration for metabolic stability or 10 μM final concentration for metabolite ID) with HLC (2 mg/ml, final concentration) in 100 mM potassium phosphate at pH 7.4. The reaction was initiated by adding HLC without preincubation. The mixture was then incubated at 37° C. for 1 h and samples were taken at 0, 30 and 60 min for analysis. The reaction was terminated by adding acetonitrile (ACN) (3×) followed by vortexing for 1 min then centrifuged. For the metabolic stability study, aliquotes of the supernatants were transferred to clean tubes and directly used for LC/MS/MS analysis. For the identification of metabolites, aliquots of supernatants were transferred to clean tubes and dried under a stream of N2. The residue was reconstituted in 30/70 (v/v) acetonitrile/water solution and injected onto LC/UV/MS system.
# The instrument and method for the metabolic stability are as following: LC/MS/MS system: Agilent 1100 HPLC interfaced to Sciex API4000 mass spectrometer (ESI); HPLC column: ACE 3 C18-PFP, 50×2.1 mm, 5 μm. […]
compound,measurement,setting,value
c1ccc2c(-c3cnn4cc(-c5ccc(N6CCNCC6)cc5)cnc34)ccnc2c1 [TRND00262637-13],30 minutes (%),"pH 7.4, sample at 30 min",0.06%
same,60 minutes (%),"pH 7.4, sample at 60 min",0.02%

# Reference: patent publication US20230000869A1, “NOVEL ALK2 INHIBITORS AND METHODS FOR INHIBITING BMP SIGNALING” (The Brigham and Women's Hospital, Inc., priority 2017, published 2023)
